IC50 data for 22 molecules are collected here from patent EP4385979A1 (Grünenthal GmbH, priority 2022, dated 2024).

pIC50: −log10 of the molar value. Bounds are passed on as bounds.

Usually pIC50 stands for −log10 of the IC50, conventionally taken in molar units.

The target in the assay is T1, human NaV1.8 (Homo sapiens, UniProt Q9Y5Y9).
T1 construct: expressed in transfected cells; host or cells: HEK
T1 sequence (Q9Y5Y9 whole entry): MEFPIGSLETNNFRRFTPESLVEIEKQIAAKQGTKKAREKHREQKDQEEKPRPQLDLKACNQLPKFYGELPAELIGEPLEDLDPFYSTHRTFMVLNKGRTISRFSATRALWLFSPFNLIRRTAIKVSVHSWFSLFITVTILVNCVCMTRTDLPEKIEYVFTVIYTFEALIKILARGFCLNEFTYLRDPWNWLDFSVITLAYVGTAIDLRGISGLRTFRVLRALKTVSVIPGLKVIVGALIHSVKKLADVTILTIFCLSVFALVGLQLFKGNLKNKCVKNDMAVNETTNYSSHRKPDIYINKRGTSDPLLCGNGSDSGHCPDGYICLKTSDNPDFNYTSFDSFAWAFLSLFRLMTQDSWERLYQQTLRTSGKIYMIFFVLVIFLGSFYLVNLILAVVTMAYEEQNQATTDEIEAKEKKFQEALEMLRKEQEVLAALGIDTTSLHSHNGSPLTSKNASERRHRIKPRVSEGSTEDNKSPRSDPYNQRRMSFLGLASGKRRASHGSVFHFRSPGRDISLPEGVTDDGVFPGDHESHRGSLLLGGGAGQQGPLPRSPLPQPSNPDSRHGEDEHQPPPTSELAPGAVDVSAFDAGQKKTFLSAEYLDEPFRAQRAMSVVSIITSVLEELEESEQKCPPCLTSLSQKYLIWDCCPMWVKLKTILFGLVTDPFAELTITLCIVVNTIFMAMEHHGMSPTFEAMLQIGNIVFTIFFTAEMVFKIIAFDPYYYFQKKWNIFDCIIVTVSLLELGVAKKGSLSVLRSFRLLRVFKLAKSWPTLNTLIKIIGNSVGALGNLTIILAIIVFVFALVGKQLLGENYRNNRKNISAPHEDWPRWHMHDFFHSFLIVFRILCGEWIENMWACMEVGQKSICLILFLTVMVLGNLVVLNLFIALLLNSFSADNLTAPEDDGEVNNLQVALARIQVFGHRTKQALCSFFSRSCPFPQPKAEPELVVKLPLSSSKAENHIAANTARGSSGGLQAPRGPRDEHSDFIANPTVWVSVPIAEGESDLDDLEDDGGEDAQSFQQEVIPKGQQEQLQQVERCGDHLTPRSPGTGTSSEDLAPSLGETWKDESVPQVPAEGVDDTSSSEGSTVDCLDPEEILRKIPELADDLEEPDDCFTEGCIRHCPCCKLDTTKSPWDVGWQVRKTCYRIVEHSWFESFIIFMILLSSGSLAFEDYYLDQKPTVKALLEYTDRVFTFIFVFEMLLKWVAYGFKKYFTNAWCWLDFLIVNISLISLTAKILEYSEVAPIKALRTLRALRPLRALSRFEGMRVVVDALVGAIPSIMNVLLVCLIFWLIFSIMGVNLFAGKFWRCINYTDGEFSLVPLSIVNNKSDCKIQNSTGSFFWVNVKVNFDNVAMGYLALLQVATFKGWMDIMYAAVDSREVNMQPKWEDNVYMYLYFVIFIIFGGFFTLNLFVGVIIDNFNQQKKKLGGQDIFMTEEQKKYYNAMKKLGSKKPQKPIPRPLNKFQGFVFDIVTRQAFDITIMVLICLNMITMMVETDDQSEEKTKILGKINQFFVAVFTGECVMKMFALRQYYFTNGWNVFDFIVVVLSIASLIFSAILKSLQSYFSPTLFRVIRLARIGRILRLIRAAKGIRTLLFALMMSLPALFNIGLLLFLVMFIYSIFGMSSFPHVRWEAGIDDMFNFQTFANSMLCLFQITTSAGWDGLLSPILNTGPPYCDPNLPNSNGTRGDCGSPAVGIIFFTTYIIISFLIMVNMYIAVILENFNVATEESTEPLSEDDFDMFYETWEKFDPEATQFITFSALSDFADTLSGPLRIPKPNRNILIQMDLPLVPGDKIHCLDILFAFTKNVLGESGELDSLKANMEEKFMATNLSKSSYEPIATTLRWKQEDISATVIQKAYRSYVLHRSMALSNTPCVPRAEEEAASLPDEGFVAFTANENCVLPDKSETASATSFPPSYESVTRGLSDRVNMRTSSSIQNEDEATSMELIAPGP
Nature of the assay: Electrophysiology: voltage-clamp recordings, whole-cell patch clamp on Qube384 automated platform. It counts as cell-based. To be noted: HEK-NaV1.8 (NM 006514.1) with b3 recombinant cell line, multi hole plates, ambient room temperature, read-out: Potency category (human NaV1.8 IC50). The protocol:
Electrophysiology: Voltage-Clamp recordings
The following NaV1.8 recombinant cell line was used for recordings: HEK-NaV1.8 (NM 006514.1) with b3 (NM_018400.3).
Sodium currents were measured using the patch clamp technique in the whole-cell configuration using the Qube384 (Sophion A/S, Copenhagen, Denmark) automated voltage clamp platform. "Multi hole" plates were used for the cell line expressing NaV1.8 while "single hole" plates were used for the recombinant cell lines expressing the other subtypes. Appropriate filters (for minimum seal resistance and minimum current size) and series resistance compensation (for high quality sodium channel recordings) were applied. Data was collected at ambient room temperature.
The recording […] solution contained (in mM): NaCl 145 mM, KCl 4 mM, CaCl2 2 mM, MgCl2 1 mM, HEPES 10 mM, Glucose 10 mM, pH 7.4 (NaOH). The […] recording solution contained (in mM): CsF 120 mM, CsCl 20 mM, NaCl 10 mM, EGTA 10 mM, HEPES 10 mM, pH 7.2 (CsOH). Currents were recorded at 25 kHz sampling frequency and filtered at 5 kHz. Series resistance compensation was applied at 65%.
Vehicle (VEH) is the control condition where cells are exposed to 0.3 % DMSO without compound. All runs include VEH controls being exposed to the same voltage protocols to assess non-compound related phenomena such as run down and then used to isolate compound dependent effects on currents.
To check for state-dependence inhibition, the following voltage-sequence was applied every 20 seconds: From a resting membrane potential of-120 mV, the first test pulse (P1; 20 ms to -10 mV) was applied to check for channels in the Resting State followed by a brief recovery (20 ms to -120 mV), then holding the membrane voltage to V1/2 (4 seconds at voltage to obtain half the channel at Rest and half Inactivated) with a subsequent second test pulse (P2; 20 ms to -10 mV) to check for channels in the Inactivated State, followed by another brief recovery (20 ms to -120 mV) and a final third test pulse (P3; 20 ms to -10 mV) to check for recovered channels.
To check for frequency-dependent inhibition, a 10 Hz protocol and a 20 Hz protocol were applied; namely,
From a resting membrane potential of -120 mV, 40-pulses (10 ms to -10 mV) was applied at 10 Hz (at 100 ms between pulses) and then at 20 Hz (at 50 ms between pulses). Each parameter was recorded (P1, P2, P3, P40 from 10Hz and P40 from 20Hz) during a control period (lasting ~ 5 minutes) when establishing the baseline and during compound period (lasting ~ 12 minutes) when test compound (or vehicle) was applied. For each parameter, the value at the end of the compound period was normalized to the vehicle baseline; as follows Normalized Inhibition (NormCPD) = (CPD Valueend CPD period)/(VEH Valueend Control Period) [formula]
To adjust for any variance in the Na^+ current signal during the compound period (owing to cumulative inactivation independent of compound or shifts in biophysics over time), a dedicated segment of the recording wells in each 384 plate were dedicated to having only vehicle exposure. These vehicle-only recordings were used to correct for any apparent "run-up" or "run-down" in the experiment. Normalized Inhibition (NormVEH) = (VEH Valueend CPD period)/(VEH Valueend Control Period) [formula]
The adjusted inhibition was calculated as follows: % Inhibitioncorrected = 100 × (NormCPD −NormVEH)/(100−NormVEH) [formula]
Percent inhibition was determined and IC50 values were calculated using a 4 parameter logistic model within XLFit Software (IDBS, Boston MA): % Inhibitioncorrected = A + ((B−A))/((1 + (((x)/(C)))^D) [formula] where A and B are the maximal and minimum inhibition respectively, C is the IC50 concentration and D is the (Hill) slope.
On to `Cc1c(C(C)(F)F)nn(CC2(C)CC(F)(F)CC2C)c1C(=O)Nc1ccnc(C(N)=O)c1` (single isomer, unassigned) [Example 10a, 4-(1-((4,4-difluoro-1,2-dimethylcyclopentyl)methyl)-3-(1,1-difluoroethyl)-4-methyl-1H-pyrazole-5-carboxamido)picolinamide], for which the pIC50 is at least 7.00.

As to `Cc1c(C(C)(F)F)nn(CC2(C)CC(F)(F)CC2C)c1C(=O)Nc1ccnc(C(N)=O)c1` (single isomer, unassigned) [Example 10b, 4-(1-((4,4-difluoro-1,2-dimethylcyclopentyl)methyl)-3-(1,1-difluoroethyl)-4-methyl-1H-pyrazole-5-carboxamido)picolinamide], the pIC50 is at least 7.00.

Turning to `Cc1c(C(C)(F)F)nn(CC2(C)CC(F)(F)CC2C)c1C(=O)Nc1ccnc(C(N)=O)c1` (single isomer, unassigned) [Example 10c, 4-(1-((4,4-difluoro-1,2-dimethylcyclopentyl)methyl)-3-(1,1-difluoroethyl)-4-methyl-1H-pyrazole-5-carboxamido)picolinamide], the negative logarithm of the IC50 (pIC50) is at least 7.00.

`Cc1c(C(C)(F)F)nn(CC2(C)CC(F)(F)CC2C)c1C(=O)Nc1ccnc(C(N)=O)c1` (single isomer, unassigned) [Example 10d, 4-(1-((4,4-difluoro-1,2-dimethylcyclopentyl)methyl)-3-(1,1-difluoroethyl)-4-methyl-1H-pyrazole-5-carboxamido)picolinamide]: the pIC50 is at least 7.00.

For `CC1(C)CC(Cn2nc(C3CC3)c(C(F)(F)F)c2C(=O)Nc2ccnc(C(N)=O)c2)O1` (single isomer, unassigned) [Example 17a, 4-(3-cyclopropyl-1-((4,4-dimethyloxetan-2-yl)methyl)-4-(trifluoromethyl)-1H-pyrazole-5-carboxamido)picolinamide], the pIC50 is 6.00 to 7.00.

Turning to `CC1(C)CC(Cn2nc(C3CC3)c(C(F)(F)F)c2C(=O)Nc2ccnc(S(C)(=O)=O)c2)O1` (single isomer, unassigned) [Example 22a, 3-cyclopropyl-1-((4,4-dimethyloxetan-2-yl)methyl)-N-(2-(methylsulfonyl)pyridin-4-yl)-4-(trifluoromethyl)-1H-pyrazole-5-carboxamide], the pIC50 was 5.00 to 6.00.

Regarding `Cc1c(C(C)(F)F)nn(CC2(C)CC(F)(F)CC2C)c1C(=O)Nc1ccnc(S(N)(=O)=O)c1` (single isomer, unassigned) [Example 43a, 1-((4,4-difluoro-1,2-dimethylcyclopentyl)methyl)-3-(1,1-difluoroethyl)-4-methyl-N-(2-sulfamoylpyridin-4-yl)-1H-pyrazole-5-carboxamide], the pIC50 was at least 7.00.

`Cc1c(C(C)(F)F)nn(CC2(C)CC(F)(F)CC2C)c1C(=O)Nc1ccnc(S(N)(=O)=O)c1` (single isomer, unassigned) [Example 43b, 1-((4,4-difluoro-1,2-dimethylcyclopentyl)methyl)-3-(1,1-difluoroethyl)-4-methyl-N-(2-sulfamoylpyridin-4-yl)-1H-pyrazole-5-carboxamide]: the pIC50 was at least 7.00.

Take `Cc1c(C(C)(F)F)nn(CC2(C)CC(F)(F)CC2C)c1C(=O)Nc1ccnc(S(N)(=O)=O)c1` (single isomer, unassigned) [Example 43c, 1-((4,4-difluoro-1,2-dimethylcyclopentyl)methyl)-3-(1,1-difluoroethyl)-4-methyl-N-(2-sulfamoylpyridin-4-yl)-1H-pyrazole-5-carboxamide]: the pIC50 is at least 7.00.

For `Cc1c(C(C)(F)F)nn(CC2(C)CC(F)(F)CC2C)c1C(=O)Nc1ccnc(S(N)(=O)=O)c1` (single isomer, unassigned) [Example 43d, 1-((4,4-difluoro-1,2-dimethylcyclopentyl)methyl)-3-(1,1-difluoroethyl)-4-methyl-N-(2-sulfamoylpyridin-4-yl)-1H-pyrazole-5-carboxamide], the pIC50 was at least 7.00.

On to `Cc1nn(CC23CC(F)(C2)C3)c(C(=O)Nc2ccnc(C(N)=O)c2)c1C(F)(F)F` [Example 1, 4-(1-((3-fluorobicyclo[1.1.1]pentan-1-yl)methyl)-3-methyl-4-(trifluoromethyl)-1H-pyrazole-5-carboxamido)picolinamide], for which the pIC50 was 6.00 to 7.00.

Consider `Cc1c(C(C)(F)F)nn(CC23CC(F)(C2)C3)c1C(=O)Nc1ccnc(C(N)=O)c1` [Example 2, 4-(3-(1,1-difluoroethyl)-1-((3-fluorobicyclo [1.1.1]pentan-1-yl)methyl)-4-methyl-1H-pyrazole-5-carboxamido)picolinamide], for which the pIC50 was 6.00 to 7.00.

In the case of `NC(=O)c1cc(NC(=O)c2c(C(F)(F)F)c(C3CC3)nn2CC23CC(CO2)C3)ccn1` [Example 3], the pIC50 is 6.00 to 7.00.

For `Cc1c(C(C)(F)F)nn(CC23CC(C(F)(F)F)(C2)C3)c1C(=O)Nc1ccnc(C(N)=O)c1` [Example 4], the pIC50 is at least 7.00.

As for `Cc1c(C(F)(F)F)nn(CC23CC(C(F)(F)F)(C2)C3)c1C(=O)Nc1ccnc(C(N)=O)c1` [Example 8, 4-(4-methyl-3-(trifluoromethyl)-1-((3-(trifluoromethyl)bicyclo [1.1.1]pentan-1-yl)methyl)-1H-pyrazole-5-carboxamido)picolinamide], the pIC50 was at least 7.00.

With `NC(=O)c1cc(NC(=O)c2c(C(F)(F)F)c(C3CC3)nn2CC23CC(C(F)(F)F)(C2)C3)ccn1` [Example 9, 4-(3-cyclopropyl-4-(trifluoromethyl)-1-((3-(trifluoromethyl)bicyclo [1.1.1]pentan-1-yl)methyl)-1H-pyrazole-5-carboxamido)picolinamide], the negative logarithm of the IC50 (pIC50) was at least 7.00.

As to `COC12CC(Cn3nc(C4CC4)c(C(F)(F)F)c3C(=O)Nc3ccnc(C(N)=O)c3)(C1)C2` [Example 14, 4-(3-cyclopropyl-1-((3-methoxybicyclo[1.1.1]pentan-1-yl)methyl)-4-(trifluoromethyl)-1H-pyrazole-5-carboxamido)picolinamide], the pIC50 is 6.00 to 7.00.

Take `NC(=O)c1cc(NC(=O)c2c(C(F)(F)F)c(C3CC3)nn2CC23CC(F)(C2)C3)ccn1` [Example 15, 4-(3-cyclopropyl-1-((3-fluorobicyclo [1.1.1]pentan-1-yl)methyl)-4-(trifluoromethyl)-1H-pyrazole-5-carboxamido)picolinamide]: the pIC50 was at least 7.00.

Regarding `CC12COC(Cn3nc(C4CC4)c(C(F)(F)F)c3C(=O)Nc3ccnc(C(N)=O)c3)(C1)C2` [Example 16, 4-(3-cyclopropyl-1-((4-methyl-2-oxabicyclo[2.1.1]hexan-1-yl)methyl)-4-(trifluoromethyl)-1H-pyrazole-5-carboxamido)picolinamide], the pIC50 is at least 7.00.

As for `Cc1nn(CC23CC(C(F)(F)F)(C2)C3)c(C(=O)Nc2ccnc(C(N)=O)c2)c1C(F)(F)F` [Example 18, 4-(3-methyl-4-(trifluoromethyl)-1-((3-(trifluoromethyl)bicyclo [1.1.1]pentan-1-yl)methyl)-1H-pyrazole-5-carboxamido)picolinamide], the pIC50 is at least 7.00.

For `CC12COC(Cn3nc(C4CC4)c(C(F)(F)F)c3C(=O)Nc3ccnc(S(C)(=O)=O)c3)(C1)C2` [Example 19, 3-cyclopropyl-1-((4-methyl-2-oxabicyclo[2.1.1]hexan-1-yl)methyl)-N-(2-(methylsulfonyl)pyridin-4-yl)-4-(trifluoromethyl)-1H-pyrazole-5-carboxamide], the pIC50 is 6.00 to 7.00.

Regarding `COC12CC(Cn3nc(C4CC4)c(C(F)(F)F)c3C(=O)Nc3ccnc(S(C)(=O)=O)c3)(C1)C2` [Example 20], the negative-log IC50 (pIC50) was 6.00 to 7.00.
